In patent US10335454B2, “Combination and use” (HELPERBY THERAPEUTICS LIMITED, priority 2014, dated 2019):

Assays:
[1] = system: log phase NDM-1 Klebsiella pneumoniae (NCTC 13443 strain); assay: Time-kill of suloctidil and colistin, alone and in combination, against log phase NDM-1 Klebsiella pneumoniae; format: cell-based; conditions: for kill effect (CFU counts): colistin alone 16 μg/ml, FIG. 19
Procedure: The synergistic effect of suloctidil in combination with colistin was tested against log phase NDM-1 Klebsiella pneumoniae using time-kill methods over a period of 24 hours.
Bacterial strain used: NCTC 13443 strain of NDM-1 Klebsiella pneumoniae
Growth of bacteria: Log phase growth of the bacteria was carried out according to methods known in the art.
(§1) (i) Suloctidil was obtained from a commercial source and dissolved in DMSO to make a stock concentration of 10 mg/ml.
(§2) (ii) Colistin was obtained from a commercial source at a concentration of 20 mg/ml.
Both suloctidil and colistin were then added to 96 well plates either alone or in the combinations shown below in Table 1.
(§3) The overnight culture was diluted with nutrient broth (Oxoid) to 10^7 CFU/ml and 280 μl and 290 μl of the culture was added to each combination well and single agent well, respectively, to make a final […] of 300 μl. Incubation of the compounds with the bacterial suspension was carried out for 24 hours. At 0, 2, 4, 7 and 25 hours, CFU counts were performed to measure the kill effects of the drug combination.

[2] = system: log phase NDM-1 E. coli (BAA2469 strain); assay: Time-kill of suloctidil and colistin, alone and in combination, against log phase NDM-1 E. coli; format: cell-based; conditions: FIGS. 28 to 34
Procedure: Materials and Methods • Bacterial strain used: BAA2469 strain of NDM-1 E. coli • Growth of bacteria: Log phase growth of bacteria was carried out according to methods known in the art.
as §1, §2
Both suloctidil and colistin were then added to 96 well plates either alone or in the combinations shown below in Table 2.
as §3

Row | Molecule | antimicrobial effect when used alone ([1]; suloctidil alone at 32, 16, 8 and 4 μg/ml, time-kill, FIGS. 18 to 27) | antimicrobial effect when used alone ([2]; suloctidil alone at 16, 8 and 4 μg/ml) | kill effect (CFU counts) ([1]; after 7 hours) | kill effect (CFU counts) ([1]; after 25 hours) | antimicrobial effect when used alone ([1]; colistin alone at 8 and 4 μg/ml, time-kill, FIGS. 20, 21, 24, 25 and 27) | duration of the antimicrobial effect ([1]; colistin alone at 32 and 16 μg/ml, time-kill) | antimicrobial effect when used alone ([1]; colistin alone at 32 and 16 μg/ml, time-kill, FIGS. 18, 19, 22, 23 and 26) | antimicrobial effect when used alone ([2]; colistin alone at 8, 4, 2 and 1 μg/ml)
1 | CCCCCCCCNC(C)C(O)c1ccc(SC(C)C)cc1 (centres unmarked) [suloctidil] | no antimicrobial effect | no antimicrobial effect |  |  |  |  |  | 
2 | colistin |  |  | complete kill | bacteria re-growth | no antimicrobial effect | not long term | antimicrobial effect | no antimicrobial effect
